Data on 18 compounds can be found in patent US12459951B2, “Compounds that interact with RAS superfamily proteins for treatment of cancers, inflammatory diseases, rasopathies, and fibrotic disease” (SHY Therapeutics, LLC, priority 2022, dated 2025).

One experiment relates to Akt phosphorylation. The experiment in a line: Akt Phosphorylation Assay (western blot), Panc-1. It counts as cell-based, human. The settings on record: at 10 μM, * = activation. A digest of the protocol: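 Phospho-Akt (Ser473) was measured by western blot in lysates of KRas G12D Panc-1 cells exposed to test compound for 6 h at 37 °C, either at 10 μM final with 0.3% DMSO or as serial dilutions for IC50. One format used overnight 0.5% FBS starvation followed by a 15 min pulse of 1.5 ng/ml EGF. The other used cells in 10% FBS with no stimulation.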

A further experiment relates to Erk1/2 phosphorylation. Put plainly: Erk1/2 Phosphorylation Assay (western blot), Panc-1. It counts as cell-based, human. To be noted: at 10 μM, * = activation. Put shortly: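 Phospho-Erk1/2 (Thr202/Tyr204) was detected by western blot in lysates of Panc-1 cells (KRas G12D). These had 6 h, 37° C exposure to 10 μM compound or a dilution series for IC50, in 0.3% DMSO. Cells were either starved overnight in 0.5% FBS with a 15-min 1.5 ng/ml EGF pulse, or kept unstimulated in 10% FBS.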

A further experiment has as its system TNF-alpha. The experiment in a line: TNF-alpha Quantification Assay (ELISA), LPS-stimulated RAW 264.7. It counts as cell-based. The settings on record: Mus musculus, RAW264.7; at 10 μM; read-out: TNFα: % inh.

For `CO[C@H]1C[C@H](Nc2nc(-c3nccn3C)nn3cc(-c4ccccc4)c(-c4ccccc4)c23)C1` [Compound 203, N-((1r,3r)-3-Methoxycyclobutyl)-2-(1-methyl-1H-imidazol-2-yl)-5,6-diphenylpyrrolo[2,1-f][1,2,4]triazin-4-amine], the “% inh of Akt phosphorylation in Panc-1” value in the experiment on Akt phosphorylation is recorded as “D (85-100% inhibition)”. The “% inh of Erk1/2 phosphorylation in Panc-1” value in the experiment on Erk1/2 phosphorylation was “D (85-100% inhibition)”. The inhibition at 10 µM in the experiment on TNF-alpha was in the range of 75 to 100%.

With `CCNC(=O)c1c(-c2ccn(C)n2)cn2nc(-c3nccn3C)nc(Nc3cc(OC)ccn3)c12` [Compound 173, N-Ethyl-4-((4-methoxypyridin-2-yl)amino)-2-(1-methyl-1H-imidazol-2-yl)-6-(1-methyl-1H-pyrazol-3-yl)pyrrolo[2,1-f][1,2,4]triazine-5-carboxamide], the “% inh of Akt phosphorylation in Panc-1” value in the experiment with Akt phosphorylation is “C* (46-84% activation)”. Moreover, the “% inh of Erk1/2 phosphorylation in Panc-1” value in the experiment on Erk1/2 phosphorylation was “C (50-84% inhibition)”. Also, the inhibition at 10 µM in the experiment on TNF-alpha turned out to be 0%.

On to `COCCCNC(=O)c1c(-c2ccn(C)n2)cn2nc(-c3nccn3C)nc(N[C@H]3CC[C@H](OC)C3)c12` (racemic) [Compound 184, rac 4-(((1S,3S)-3-methoxycyclo-pentyl)amino)-N-(3-methoxypropyl)-2-(1-methyl-1H-imidazol-2-yl)-6-(1-methyl-1H-pyrazol-3-yl)pyrrolo[2,1-f][1,2,4]triazine-5-carboxamide], for which the “% inh of Akt phosphorylation in Panc-1” value in the experiment with Akt phosphorylation was “A* (1-25% activation)”. Also, in the experiment with Erk1/2 phosphorylation, the “% inh of Erk1/2 phosphorylation in Panc-1” value is recorded as “A* (1-25% activation)”. Moreover, the inhibition at 10 µM in the experiment with TNF-alpha lay in the range of 25 to 49%.

`COC[C@@H]1CC[C@@H]1CNc1nc(-c2ccccn2)nn2cc(-c3ccn(C(C)C)n3)c(C)c12` (racemic) [Compound 11, rac 6-(1-Isopropyl-1H-pyrazol-3-yl)-N-(((1S,2R)-2-(methoxymethyl)cyclobutyl)methyl)-5-methyl-2-(pyridin-2-yl)pyrrolo[2,1-f][1,2,4]triazin-4-amine]: the “% inh of Akt phosphorylation in Panc-1” value with Akt phosphorylation is recorded as 0 (0% inhibition). Moreover, the “% inh of Erk1/2 phosphorylation in Panc-1” value in the experiment with Erk1/2 phosphorylation was 0 (0% inhibition). In addition, in the experiment with TNF-alpha, the inhibition at 10 µM is 0%.

On to `CO[C@H]1C[C@H](Nc2nc(-c3nccn3C)nn3cc(-c4ccc(CN)cc4)c(-c4ccccc4)c23)C1.Cl` [Compound 206, 6-(4-(Aminomethyl)phenyl)-N-((1r,3r)-3-methoxycyclobutyl)-2-(1-methyl-1H-imidazol-2-yl)-5-phenylpyrrolo[2,1-f][1,2,4]triazin-4-amine hydrochloride salt], for which the “% inh of Akt phosphorylation in Panc-1” value with Akt phosphorylation was “C (50-84% inhibition)”. In the experiment with Erk1/2 phosphorylation, the “% inh of Erk1/2 phosphorylation in Panc-1” value is recorded as “B (26-49% inhibition)”. Besides, in the experiment with TNF-alpha, the inhibition at 10 µM is 1 to 24%.

As to `CO[C@H]1CC[C@@H](Nc2nc(-c3nccn3C)nn3cc(-c4ccncc4)c(-c4ccccc4)c23)C1` (racemic) [Compound 200, rac N-((1R,3S)-3-Methoxycyclopentyl)-2-(1-methyl-1H-imidazol-2-yl)-5-phenyl-6-(pyridin-4-yl)pyrrolo[2,1-f][1,2,4]triazin-4-amine], in the experiment on Akt phosphorylation, the “% inh of Akt phosphorylation in Panc-1” value is given as “B (26-49% inhibition)”. Besides, the “% inh of Erk1/2 phosphorylation in Panc-1” value in the experiment on Erk1/2 phosphorylation was “D* (85-100% activation)”. Further, the inhibition at 10 µM in the experiment on TNF-alpha lay within 1 to 24%.

In the case of `Cc1cnc2c(c1)CCN2c1nc(-c2nccn2C)nn2cc(-c3ccn(C)n3)c(C)c12` [Compound 239, 5-Methyl-2-(1-methyl-1H-imidazol-2-yl)-6-(1-methyl-1H-pyrazol-3-yl)-4-(5-methyl-2,3-dihydro-1H-pyrrolo[2,3-b]pyridin-1-yl)pyrrolo[2,1-f][1,2,4]triazine], the “% inh of Akt phosphorylation in Panc-1” value in the experiment on Akt phosphorylation is listed as “D* (85-100% activation)”. The “% inh of Erk1/2 phosphorylation in Panc-1” value in the experiment with Erk1/2 phosphorylation is on record as “C* (46-84% activation)”. For the same compound, the inhibition at 10 µM in the experiment on TNF-alpha lay within 1 to 24%.

On to `CO[C@H]1C[C@H](S(=O)(=O)Nc2nc(-c3nccn3C)nn3cc(-c4ccccc4)c(-c4ccccc4)c23)C1` [Compound 214, (1r,3r)-3-Methoxy-N-(2-(1-methyl-1H-imidazol-2-yl)-5,6-diphenylpyrrolo[2,1-f][1,2,4]triazin-4-yl)cyclobutane-1-sulfonamide], for which the “% inh of Akt phosphorylation in Panc-1” value with Akt phosphorylation is recorded as “A* (1-25% activation)”. Also, the “% inh of Erk1/2 phosphorylation in Panc-1” value in the experiment with Erk1/2 phosphorylation is reported as “A* (1-25% activation)”. The inhibition at 10 µM in the experiment on TNF-alpha amounted to 0%.

For the compound `CO[C@H]1C[C@H](Nc2nc(-c3nccn3C)nn3cc(-c4ccc(OCCN)cc4)c(-c4ccccc4)c23)C1.Cl` [Compound 208, 6-(4-(2-Aminoethoxy)phenyl)-N-((1r,3r)-3-methoxycyclobutyl)-2-(1-methyl-1H-imidazol-2-yl)-5-phenylpyrrolo[2,1-f][1,2,4]triazin-4-amine hydrochloride salt], the “% inh of Akt phosphorylation in Panc-1” value in the experiment on Akt phosphorylation is “D* (85-100% activation)”. For the same compound, in the experiment on Erk1/2 phosphorylation, the “% inh of Erk1/2 phosphorylation in Panc-1” value was “C* (46-84% activation)”. In addition, the inhibition at 10 µM with TNF-alpha is 25 to 49%.

As for `COCCNC(=O)c1c(-c2ccn(C)n2)cn2nc(-c3nccn3C)nc(Nc3cc(OC)ccn3)c12` [Compound 176, N-(2-Methoxyethyl)-4-((4-methoxypyridin-2-yl)amino)-2-(1-methyl-1H-imidazol-2-yl)-6-(1-methyl-1H-pyrazol-3-yl)pyrrolo[2,1-f][1,2,4]triazine-5-carboxamide], the “% inh of Akt phosphorylation in Panc-1” value in the experiment with Akt phosphorylation was “D* (85-100% activation)”. In the experiment with Erk1/2 phosphorylation, the “% inh of Erk1/2 phosphorylation in Panc-1” value is reported as “D* (85-100% activation)”. For the same compound, the inhibition at 10 µM with TNF-alpha stood at 0%.

With `CCOc1ccc(Nc2nc(-c3nccn3C)nn3cc(-c4ccn(C)n4)c(C)c23)nc1` [Compound 229, N-(5-Ethoxypyridin-2-yl)-5-methyl-2-(1-methyl-1H-imidazol-2-yl)-6-(1-methyl-1H-pyrazol-3-yl)pyrrolo[2,1-f][1,2,4]triazin-4-amine], the “% inh of Akt phosphorylation in Panc-1” value in the experiment with Akt phosphorylation is on record as “D* (85-100% activation)”. For the same compound, the “% inh of Erk1/2 phosphorylation in Panc-1” value in the experiment on Erk1/2 phosphorylation is recorded as “A (1-25% inhibition)”. Moreover, the inhibition at 10 µM in the experiment with TNF-alpha stood at 0%.

Take `COc1cccc(-c2cn3nc(-c4nccn4C)nc(O)c3c2C)c1Cl` [Compound 15, 6-(2-Chloro-3-methoxyphenyl)-5-methyl-2-(1-methyl-1H-imidazol-2-yl)pyrrolo[2,1-f][1,2,4]triazin-4-ol]: in the experiment on Akt phosphorylation, the “% inh of Akt phosphorylation in Panc-1” value is 0 (0% inhibition). Moreover, the “% inh of Erk1/2 phosphorylation in Panc-1” value with Erk1/2 phosphorylation is given as 0 (0% inhibition). The inhibition at 10 µM in the experiment with TNF-alpha was determined as 0%.

Consider `Cc1c(-c2ccn(C)n2)cn2nc(-c3nccn3C)nc(Nc3ccc(OC(F)F)cn3)c12` [Compound 231, N-(5-(Difluorometh-oxy)pyridin-2-yl)-5-methyl-2-(1-methyl-1H-imidazol-2-yl)-6-(1-methyl-1H-pyrazol-3-yl)pyrrolo[2,1-f][1,2,4]triazin-4-amine], for which the “% inh of Akt phosphorylation in Panc-1” value in the experiment with Akt phosphorylation is “D* (85-100% activation)”. For the same compound, the “% inh of Erk1/2 phosphorylation in Panc-1” value with Erk1/2 phosphorylation is on record as “D* (85-100% activation)”. Also, the inhibition at 10 µM with TNF-alpha is 0%.

Consider `COCCNc1nc(-c2nccn2C)nn2cc(-c3cccnc3)c(-c3ccccc3)c12` [Compound 195, N-(2-Methoxyethyl)-2-(1-methyl-1H-imidazol-2-yl)-5-phenyl-6-(pyridin-3-yl)pyrrolo[2,1-f][1,2,4]triazin-4-amine], for which, in the experiment on Akt phosphorylation, the “% inh of Akt phosphorylation in Panc-1” value was “D* (85-100% activation)”. Besides, the “% inh of Erk1/2 phosphorylation in Panc-1” value in the experiment on Erk1/2 phosphorylation is listed as “B* (26-49% activation)”. Also, in the experiment with TNF-alpha, the inhibition at 10 µM was 0%.

On to `Cc1c(-c2ccn(C)n2)cn2nc(-c3nccn3C)nc(Nc3ccc(OC(F)(F)F)cn3)c12` [Compound 232, 5-Methyl-2-(1-methyl-1H-imidazol-2-yl)-6-(1-methyl-1H-pyrazol-3-yl)-N-(5-(trifluoro-methoxy)pyridin-2-yl)pyrrolo[2,1-f][1,2,4]triazin-4-amine], for which the “% inh of Akt phosphorylation in Panc-1” value in the experiment on Akt phosphorylation was “D* (85-100% activation)”. Besides, in the experiment with Erk1/2 phosphorylation, the “% inh of Erk1/2 phosphorylation in Panc-1” value was “B* (26-49% activation)”. Also, the inhibition at 10 µM in the experiment with TNF-alpha is 1 to 24%.

As for `COc1ccnc(Nc2nc(-c3nccn3C)nn3cc(-c4ccn(CCNC(=O)CCCC[C@H]5SC[C@H]6NC(=O)N[C@H]65)n4)c(C)c23)c1` [Compound 215, N-(2-(3-(4-((4-methoxypyridin-2-yl)amino)-5-methyl-2-(1-methyl-1H-imidazol-2-yl)pyrrolo[2,1-f][1,2,4]triazin-6-yl)-1H-pyrazol-1-yl)ethyl)-5-((3aR,4R,6aS)-2-oxohexahydro-1H-thieno[3,4-d]imidazol-4-yl)pentanamide], the “% inh of Akt phosphorylation in Panc-1” value in the experiment with Akt phosphorylation is given as “B* (26-49% activation)”. The “% inh of Erk1/2 phosphorylation in Panc-1” value in the experiment on Erk1/2 phosphorylation is given as “A* (1-25% activation)”. For the same compound, the inhibition at 10 µM in the experiment on TNF-alpha fell in the range of 25 to 49%.

On to `CO[C@H]1C[C@@H](Nc2nc(-c3nccn3C)nn3cc(-c4cccnc4)c(-c4ccccc4)c23)C1` [Compound 191, N-((1s,3s)-3-Methoxycyclobutyl)-2-(1-methyl-1H-imidazol-2-yl)-5-phenyl-6-(pyridin-3-yl)pyrrolo[2,1-f][1,2,4]triazin-4-amine], for which the “% inh of Akt phosphorylation in Panc-1” value in the experiment on Akt phosphorylation is recorded as “D* (85-100% activation)”. Besides, the “% inh of Erk1/2 phosphorylation in Panc-1” value with Erk1/2 phosphorylation was “D* (85-100% activation)”. Also, the inhibition at 10 µM in the experiment on TNF-alpha is 1 to 24%.

Regarding `COc1cc(Nc2nc(-c3nccn3C)nn3cc(-c4ccn(C)n4)c(C)c23)ncc1F` [Compound 237, N-(5-Fluoro-4-methoxypyridin-2-yl)-5-methyl-2-(1-methyl-1H-imidazol-2-yl)-6-(1-methyl-1H-pyrazol-3-yl)pyrrolo[2,1-f][1,2,4]triazin-4-amine], the “% inh of Akt phosphorylation in Panc-1” value in the experiment on Akt phosphorylation is “D* (85-100% activation)”. The “% inh of Erk1/2 phosphorylation in Panc-1” value in the experiment with Erk1/2 phosphorylation is 0 (0% inhibition). Also, the inhibition at 10 µM in the experiment on TNF-alpha was 0%.
